Experimental data from publication PMC5522078, “Discovery and characterization of small molecules targeting the DNA-binding ETS domain of ERG in prostate cancer” (Oncotarget, 2017).

Key:
ERG-ETS domain = molecular target: T1, ERG-ETS domain (Homo sapiens, UniProt P11308); experiment: NMR-monitored titration (15N-HSQC) with ERG-ETS domain; settings: 15N-HSQC titration, 1:1 binding isotherm; pH 6.5; read-out: KD for interaction with recombinant ERG-ETS domain
T1 construct: A pET28a plasmid encoding residues 307–400 of the ERG-ETS domain; His6 (cleaved yes); made in house; host or cells: E. coli BL21 (λDE3)
T1 sequence (P11308 307-400): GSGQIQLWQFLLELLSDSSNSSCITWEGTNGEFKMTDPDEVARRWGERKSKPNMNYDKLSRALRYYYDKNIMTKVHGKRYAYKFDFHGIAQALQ
Procedure: ERG-ETS domain expression and purification. A pET28a plasmid encoding residues 307–400 of the ERG-ETS domain was expressed in E. coli BL21 (λDE3). Cultures of 1 L were grown at 37°C in M9 media supplied with 3 gm/L ^13C6-glucose and/or 1 gm/L ^15NH4Cl. Cells were allowed to grow to O.D.600 = 0.6 and protein expression was induced by adding 1 mM IPTG. After an induction time of 4 h, cells were harvested by centrifugation and stored at −80 °C for at least 1 round of freeze/thaw. Cells were resuspended in 40 mL of lysis buffer for every 1 L of culture. Cells were lysed by passing through 5 rounds of homogenization and 10 mins of sonication. The cell lysate centrifuged at 15k rpm for 1 hr, and the supernatant subjected to nickel column purification. The column was washed using 25 mM imidazole (50 mM phosphate, 1 M NaCl, pH 7.4) and proteins were eluted with 1 M imidazole. Fractions containing the ETS domain were confirmed by SDS-PAGE and pooled. […] NMR data were recorded at 25 or 28°C on cryoprobe-equipped 850 MHz Bruker Avance III spectrometer. Data were processed and analyzed using NMRpipe and Sparky. […] NMR-monitored titrations. Interactions of compounds with the ERG-ETS domain were monitored via sensitivity-enhanced ^15N-HSQC spectra. […] Chemical shift perturbations were calculated from the combined amide ^1H^N and ^15N shift changes as Δδ = [(0.2 × ΔδN)^2 + (ΔδH)^2]^1/2. […]

ERG-DNA complex = molecular target: T2, ERG-DNA complex (Homo sapiens, UniProt P11308); experiment: EMSA with VCaP nuclear lysate; format: binding; settings: 55 ng/μl nuclear extract, 4 μM to 8 mM
T2 construct: VCaP (endogenous overexpression); endogenous in cells; host or cells: VCaP (whole cells for A2 and A17; nuclear extract for A16)
T2 sequence (P11308 33-479 limits assumed): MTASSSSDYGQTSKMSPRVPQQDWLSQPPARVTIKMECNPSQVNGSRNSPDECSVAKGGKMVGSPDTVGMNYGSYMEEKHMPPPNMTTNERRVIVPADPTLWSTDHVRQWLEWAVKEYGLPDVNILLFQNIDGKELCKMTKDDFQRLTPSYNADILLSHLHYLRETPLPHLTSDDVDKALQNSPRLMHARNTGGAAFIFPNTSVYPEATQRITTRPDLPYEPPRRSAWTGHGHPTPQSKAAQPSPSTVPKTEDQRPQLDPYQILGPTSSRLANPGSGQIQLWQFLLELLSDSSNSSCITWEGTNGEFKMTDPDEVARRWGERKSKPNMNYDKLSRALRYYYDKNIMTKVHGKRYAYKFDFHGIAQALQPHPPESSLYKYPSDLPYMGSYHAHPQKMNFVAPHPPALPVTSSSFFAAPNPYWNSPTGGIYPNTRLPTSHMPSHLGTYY
Procedure: For experiments involving ERG from VCaP cells, VCaP nuclear protein was extracted using CelLytic NuCLEAR Extraction Kit (Sigma). […] For subsequent assays, 55 ng/μl of the nuclear extract was mixed with 1 nM of fluorophore-labeled dsDNA, titrated with VPC-18005 (diluted from a DMSO stock) and analyzed by the same EMSA protocol.

SOX9 = SOX9 gene expression in VCaP cells; format: cell-based, human; settings: 25 μM, with and without 1 nM R1881
Procedure: Total RNA was extracted from VCaP cells with the use of RNeasy Plus kit (Qiagen). Reverse transcription was performed with the use of the iScript First-Strand cDNA Synthesis Kit (Bio-Rad Laboratories) with 100 ng total RNA used as template. Real time reverse-transcription (RT) polymerase chain reaction (PCR) primers for ERG synthesized by IDT (forward, 5′- CGCAGATTATCGT GCCAGCAGAT -3′; reverse, 5′- CCATATTCTTTCACC GCCCACTCC-3′) and SOX9 (Quantitect primer assay, Qiagen). Real-time quantitative RT-PCR was performed in triplicate for each sample with the use of the ABI ViiA7 QPCR thermocycler. In each reaction, 1 μl cDNA, 1 μl forward and reverse primers (or 1 μl of Quantitect primers), and 6 μl Sybr Green Master Mix (Applied Biosystems) were added with water to make a final volume of 12 μl. All primers were used at a concentration of 5 μmol/l. PCR cycling conditions were 95°C for 10 minutes followed by 40 cycles of 95°C for 15 seconds, 60°C for 1 min. Data was normalized to reference genes: GAPDH (forward, 5′- […] -3′; reverse, 5′- […] -3′) The 2^−ΔΔCT method was used to compare samples. PCR product specificity was validated with the use of a melt curve.

PC3 cells = tested on: PC3 cells; design: method as in PMID 21559405; settings: read-out: IC50 for cytotoxicity in PC3 cells; cited from earlier work

What does the source list for `CC(C)c1ccc(C=N/N=C2\NC(=O)[C@@H](CC(=O)O)S2)cc1` (stereo in doubt) [VPC-18005, 2-((Z)-2-(((Z)-4-isopropylbenzylidene)hydrazono)-4-oxothiazolidin-5-yl)acetic acid]?
Kd (ERG-ETS domain): ~3 mM; Disruption of ERG-DNA complex formation, VCaP nuclear lysate (ERG-DNA complex): disrupted ERG-DNA complex formation; Basal and R1881-stimulated SOX9 mRNA and protein expression (SOX9): markedly decreased

For `COc1ccc(C(=O)CC2(O)C(=O)Nc3c(Cl)ccc(Cl)c32)cc1` (stereo not shown) [YK-4-279, reference compound], which IC50 (PC3 cells) is on record?
The IC50 was greater than 0.1 mM.
